RP-LC retention time data for 81 compounds are collected here from the METLIN SMRT retention time set (Domingo-Almenara et al. 2019).

This data set in a line: gradient 5% acetonitrile 3 min, to 50% in 2 min, to 85% in 15 min, held 3 min, 100 µL/min. The following applies: column: Zorbax Extend-C18 2.1 x 50 mm; eluents: water / acetonitrile, 0.1% formic acid. A digest of the protocol: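 Pure standards were run in mixtures of ~100 molecules by HPLC coupled to a quadrupole time-of-flight mass spectrometer. The column was a Zorbax Extend-C18 (2.1 × 50 mm, 1.8 μm) at 100 μL/min, with water and acetonitrile each containing 0.1% formic acid, in positive and negative ionization mode. Dead and dwell volumes were 40 μL and 900 μL. Retention time was taken from computationally picked adduct peaks, each manually inspected, with data collected over 3 months.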
`Cc1nc2cc(-c3noc(-c4ccc(C)c(C)c4)n3)ccc2o1` registered an RP-LC retention time of 1280 s.

On to `Cc1ccc(NC(=O)N2CCc3nc[nH]c3C2)cc1C`, for which the RP-LC retention time turned out to be 606 s.

`O=C(NCCN1CCCCC1)C1CCN(c2nccnc2Sc2ccccc2)CC1` had an RP-LC retention time of 666 s.

`CC(C)=CCOc1cc(O)c2c(=O)cc(-c3ccccc3)oc2c1`: the RP-LC retention time was 666 s.

`COc1cccc(-c2nc(-c3ccc4c(c3)oc(=O)n4C(C)C)no2)c1OC`: the RP-LC retention time was 1140 s.

`CN(C)c1ccc2c(c1)CN(C(=O)c1cnn(C)c1)CCO2` returned an RP-LC retention time of 560 s.

The compound `O=C(CN1C(=O)C2CCCCN2c2ccc(C(=O)N3CCCCC3)cc21)NCc1ccco1` (stereo unspecified) came in with an RP-LC retention time of 784 s.

In the case of `COC(=O)c1cc2c(=O)n(-c3ccc(NC(C)=O)cc3)ccc2nc1C`, the RP-LC retention time stood at 675 s.

`CCOc1ccc(S(=O)(=O)NCc2ccc3c(c2)CCN3C(=O)c2ccccc2)cc1` displayed an RP-LC retention time of 953 s.

As to `COc1ccccc1NC(=O)Cn1cnc2nc(N3CCCC(C(=O)NC(C)C)C3)sc2c1=O` (stereo unspecified), the RP-LC retention time was 688 s.

In turn, `CCc1ccc(S(=O)(=O)N2CCC3(CC2)NCCN=C3NCc2cc(F)cc(F)c2)cc1` yielded an RP-LC retention time of 798 s.

In the case of `Cc1ccc(S(=O)(=O)N2CCC(CCC(=O)NC3CC3)CC2)cc1`, the RP-LC retention time was 789 s.

For `Cc1ccc(C)c(N2CCN(c3ccnc(SCC(=O)NCc4ccccc4Cl)n3)CC2)c1`, the RP-LC retention time stood at 952 s.

In turn, `Cc1cccc(NC(=O)c2cn3c(n2)CCCC3)c1` returned an RP-LC retention time of 609 s.

With `Cn1nc(N2CCCC(NC(=O)c3cccs3)C2)ccc1=O` (stereo unspecified), the RP-LC retention time was 627 s.

For the compound `COc1ccc(NS(=O)(=O)c2cn(CC(C)C)c3ncccc23)cc1F`, the RP-LC retention time was 896 s.

`Cn1nnc2cc(-c3noc(C4CC(=O)N(c5ccccc5)C4)n3)ccc21` (stereo unspecified) came in with an RP-LC retention time of 788 s.

In turn, `Cc1oc(-c2cccc(Cl)c2)nc1COc1cc(C)c2c(C)nn(C)c2n1` showed an RP-LC retention time of 1340 s.

Turning to `Cc1nn(Cc2nc(-c3ccc(NC(=O)c4ccco4)cc3)oc2C)c(C)c1C`, the RP-LC retention time amounted to 828 s.

In turn, `Cc1cc2[nH]c(C(=O)Nc3ccc(Cl)cc3F)c(CN3CCOCC3)c2s1` gave an RP-LC retention time of 759 s.

`Cc1[nH]c2ccc(F)cc2c1CCNS(=O)(=O)c1ccc(F)cc1` gave an RP-LC retention time of 865 s.

`O=S(=O)(NCc1nc(-c2ccc(NS(=O)(=O)c3cccs3)cc2)no1)c1ccccc1` gave an RP-LC retention time of 883 s.

On to `O=C1CC(c2noc(-c3cc(F)ccc3F)n2)CN1c1ccc(F)cc1` (stereo unspecified), for which the RP-LC retention time amounted to 944 s.

`O=C(NC1(c2nc(-c3ccccc3)no2)CCCCC1)c1ccc(C(F)(F)F)cc1`: the RP-LC retention time amounted to 1250 s.

On to `CC(C)n1cc(C2=CCN(S(=O)(=O)Cc3ccccc3)CC2)c2cccnc21`, for which the RP-LC retention time was 1020 s.

As for `CCN1C(=O)c2cc(S(=O)(=O)Nc3cc(C)ccc3C)ccc2Oc2cccnc21`, the RP-LC retention time stood at 1100 s.

`Cn1c(=O)c2c(ncn2CC2OCCO2)n(C)c1=O`: the RP-LC retention time came to 606 s.

In the case of `Cc1sc(NC(=O)CSc2nnc3c4ccccc4n(C)c3n2)nc1-c1ccccc1`, the RP-LC retention time stood at 1030 s.

`O=C(c1cnn2c1CCCC2)N1CCCC1` gave an RP-LC retention time of 614 s.

Regarding `O=C(c1cccs1)N1CCN(c2ccc(=O)n(-c3ccc(Cl)cc3)n2)CC1`, the RP-LC retention time was 834 s.

For the compound `Cc1ccsc1C(=O)NCC(=O)N1CCCc2ccccc21`, the RP-LC retention time came to 832 s.

Consider `O=C(Oc1ccc2oc(=O)sc2c1)c1cccc(Cl)c1`, for which the RP-LC retention time was 1090 s.

`CCc1nc(OCC(=O)NCc2cccc(F)c2)c2c(C)c(C)oc2n1`: the RP-LC retention time amounted to 942 s.

`COc1cccc(-c2noc(Cn3ccn(-c4ccccc4OC)c(=O)c3=O)n2)c1` gave an RP-LC retention time of 810 s.

`COCCN(Cc1ccc(C(C)C)cc1)Cc1cc(=O)n2cc(C)ccc2n1` returned an RP-LC retention time of 719 s.

For the compound `CC(C)c1noc(-c2ccn3c(CC(=O)NC4CCCCC4)nnc3c2)n1`, the RP-LC retention time came to 760 s.

Take `COc1ccc2nc3oc(C(=O)NCCN4CCN(C)CC4)cc3cc2c1`: the RP-LC retention time is 597 s.

`Cc1cccc(NC(=O)C2CCN(S(=O)(=O)c3cn(C(C)C)cn3)CC2)n1` displayed an RP-LC retention time of 632 s.

For `O=C(CCc1c(-c2ccc(F)cc2)nc2ccccn12)Nc1ccccc1F`, the RP-LC retention time was determined as 653 s.

For `COc1cc(-c2noc(-c3nn(-c4cccc(C)c4)ccc3=O)n2)cc(OC)c1OC`, the RP-LC retention time was 888 s.

`CCN(CC)c1nc(C(=O)N2CCN(c3ccccn3)CC2)nc2nc(C)cc(C)c12` displayed an RP-LC retention time of 570 s.

In the case of `COc1cc(Cl)ccc1C(=O)N1C[C@@H]2C[C@H]1C[C@@H]2NC(=O)c1ccccc1`, the RP-LC retention time is 939 s.

As for `CCOC(=O)NCc1nc(COc2ccc(OC)cc2)no1`, the RP-LC retention time turned out to be 727 s.

Take `CCn1cc(-c2ccc(C)cc2)cc1C(=O)NCc1cccnc1`: the RP-LC retention time was 713 s.

As to `c1ccc(-c2csc(NCc3ccco3)n2)cc1`, the RP-LC retention time worked out at 912 s.

For `COc1ccc(OC)c(-c2cn3ccn(-c4ccc(Br)cc4)c(=O)c3n2)c1`, the RP-LC retention time is 912 s.

With `CCCCn1cc(S(=O)(=O)Nc2ccccc2)c2cccnc21`, the RP-LC retention time turned out to be 937 s.

Regarding `CCCNC(=O)C1CCN(c2ccc(SCC(=O)Nc3ccccc3OCC)nn2)CC1`, the RP-LC retention time turned out to be 621 s.

In the case of `Cc1noc([C@@H]2CN(C(=O)c3ccsc3)C[C@H]2C(N)=O)n1`, the RP-LC retention time came out at 601 s.

The compound `CC(C)N1CCn2cc(S(=O)(=O)Nc3cc(F)cc(F)c3)cc2C1=O` displayed an RP-LC retention time of 794 s.

`Cn1c(CCCC(=O)O)nc2cc(N(CCCl)CCCl)ccc21` had an RP-LC retention time of 747 s.

The compound `O=C1C2N=NN(Cc3nc(-c4cccc(Br)c4)no3)C2C(=O)N1c1ccc2c(c1)CCC2` (stereo unspecified) came in with an RP-LC retention time of 1130 s.

`CCn1ccc(C(=O)N2CC(N(C3CCOCC3)S(C)(=O)=O)C2)n1` gave an RP-LC retention time of 625 s.

On to `Cc1cccc(NC(=O)N2CCC3(CC2)NC(=O)c2ccc(F)cc2N3C)c1`, for which the RP-LC retention time was 723 s.

Turning to `O=C(Cc1c[nH]c2ccccc12)N1CCN2CCS(=O)(=O)N(C3CC3)C(=O)C2C1` (stereo unspecified), the RP-LC retention time amounted to 743 s.

Turning to `O=C(c1cc2c(s1)CCCC2)N1CCN(c2nnc3ccccn23)CC1`, the RP-LC retention time was 746 s.

With `COc1cccc(CNC(=O)c2nnc(-c3ccc(S(=O)(=O)N4CCC(C)CC4)cc3)o2)c1`, the RP-LC retention time was 1030 s.

`COc1ccc(-c2noc(Cc3nnc(-c4ccccc4)o3)n2)cc1OC` yielded an RP-LC retention time of 949 s.

Compound `CC(C)CC(=O)N1CCCC(c2nc(CNC(=O)C(C)C)cs2)C1` (stereo unspecified) returned an RP-LC retention time of 705 s.

In the case of `Cc1ccccc1-c1noc(CN2C(=O)COc3ccccc32)n1`, the RP-LC retention time came out at 1040 s.

In turn, `O=C(NCc1cccc(C(F)(F)F)c1)C1CCCN(c2cnc3nccnc3c2)C1` (stereo unspecified) displayed an RP-LC retention time of 754 s.

`COCCN1CCn2cc(S(=O)(=O)Nc3ccc(OC)c(Cl)c3)cc2C1=O` registered an RP-LC retention time of 726 s.

The compound `Cc1ccc2c(c1)C(c1ccccc1)NCC(=O)N2` (stereo unspecified) gave an RP-LC retention time of 544 s.

`CC(C)CCNC(=O)C1(C)CCC(=O)N1CCc1c[nH]c2ccccc12` (stereo unspecified) yielded an RP-LC retention time of 786 s.

In turn, `O=C(C1=NN(Cc2ccccc2)c2ccccc2S1(=O)=O)N1CCCCC1` yielded an RP-LC retention time of 929 s.

`CNC(=O)NC1CCN(c2ccc(C)c(C)c2)C1=O` (stereo unspecified) had an RP-LC retention time of 654 s.

`CC(C)c1ccc(S(=O)(=O)N2CC=C(c3cn(C)c4ncccc34)CC2)cc1`: the RP-LC retention time is 1130 s.

Turning to `CN(CCCNC(=O)c1ccc2c(c1)N(C)C(=O)C1CCCCN21)Cc1ccccc1` (stereo unspecified), the RP-LC retention time amounted to 643 s.

Take `Cc1oc(C2CCN(C(=O)Cc3c(F)cccc3Cl)CC2)nc1C(=O)N1CCCC1`: the RP-LC retention time was 848 s.

Take `CCn1cc(CC(=O)NCc2cccc(OC)c2)c2cccnc21`: the RP-LC retention time is 695 s.

In turn, `NC(=O)COC1CCC12CCN(C(=O)C1CCCCCC1)CC2` (stereo unspecified) gave an RP-LC retention time of 740 s.

For the compound `COc1cccc(-c2noc(N3CCCC3)n2)c1`, the RP-LC retention time came out at 898 s.

Compound `CC(C)NC(=O)CN1CCN(c2ncc(C(=O)NCc3ccccc3)c(N)n2)CC1` returned an RP-LC retention time of 593 s.

As to `CCN1CCN(c2ncc3c(n2)CCN(Cc2ccc(Br)s2)C3)CC1`, the RP-LC retention time was 568 s.

Take `Cc1ccc(NC(=O)C2CCCN2S(=O)(=O)c2cc3c(cc2C)NC(=O)CO3)c(C)c1` (stereo unspecified): the RP-LC retention time is 817 s.

`Cc1nn(C(=O)C2CC2)c(C)c1Sc1ccccc1[N+](=O)[O-]` returned an RP-LC retention time of 1110 s.

On to `Cn1c(=O)c(N2CCN(C(=O)c3cccs3)CC2)nc2cccnc21`, for which the RP-LC retention time was determined as 793 s.

Compound `CCn1cnc(S(=O)(=O)N2CCC(C(=O)Nc3cccc(Cl)c3)CC2)c1` gave an RP-LC retention time of 695 s.

As to `Cc1ccn2cc(C(=O)N3CCN(c4ccc(F)cc4)CC3)nc2c1`, the RP-LC retention time was found to be 650 s.

`COc1ccccc1CNC(=O)c1nc2cccnc2n(CC(C)C)c1=O` displayed an RP-LC retention time of 976 s.

In turn, `CC(Oc1ccc(-c2cnc3ccccc3n2)cc1)C(=O)N1CCN(c2ccccn2)CC1` (stereo unspecified) registered an RP-LC retention time of 650 s.
